Experimental data as given in patent US8461150B2, “Chalcone linked pyrrolo[2,1-c][1, 4]benzodiazepine hybrids as potential anticancer agents and process for the preparation thereof” (Council of Scientific & Industrial Research, priority 2008, dated 2013).

Tests used:
HCT-15 (Colon) = assay: Cytotoxicity in selected cancer cell lines (SRB, 48 h); type: cell-based, human
Method: (§1) Biological Activity: The in vitro cell line studies were carried out at the National Cancer Institute, Maryland, USA.
(§2) 6b, 6c, 6g, 10a and 10b were evaluated for in vitro anticancer activity against sixty human tumour cells derived from nine cancer types (leukemia, non-small-cell lung, colon, CNS, melanoma, ovarian, prostate, renal and breast cancer) as shown in (Table 1 and 2). For the compound, dose response curves for each cell line were measured at a minimum of five concentrations at 10 fold dilutions. A protocol of 48 h continuous drug exposure was used and a sulforhodamine B (SRB) protein assay was used to estimate cell viability or growth. The concentration causing 50% cell growth inhibition (GI50), total cell growth inhibition (TGI 0% growth) and 50% cell death (LC50, −50% growth) compared with the control was calculated.
(§3) Each cancer type represents the average of six to nine different cancer cell lines. In vitro evaluation of cytotoxic activity. The compound 6b, 6c, 6g 10a and 10b were evaluated for in vitro anticancer activity against nine human tumour cells derived from six cancer types (leukemia, colon, prostate, melanoma, ovarian, lung, cervix and breast cancer) as shown in Table 3. […] Compounds 6b, 6c, 6g, 10a and 10b have been evaluated for their in vitro cytotoxicity in selected human cancer cell lines of colon (Colo205), lung (NCI-H522, NCI-H226), colon (colo-205), prostate (DU145, PC3), ovarian (IGROV1, HT1080), and breast (MDA-MB-435, Zr-75-1), melanoma (LOXMIVI, VACC-62, SK-MEL-5) origin. A protocol of 48 h continuous drug exposure has been used and an […] has been used to estimate cell viability or growth. The results are expressed as percent of cell growth determined relative to that of untreated control cells

UACC-62 (Melanoma) = assay: as above; type: cell-based, human
Method: as §1, §2, §3

[1] = tested on: NCI-H226 (Non-small cell lung); assay: as above; type: cell-based, human
Method: as §1, §2, §3

HCT-116 (Colon) = assay: as above; type: cell-based, human
Method: as §1, §2, §3

A498 (Renal) = assay: as above; type: cell-based, human
Method: as §1, §2, §3

SW-620 (Colon) = assay: as above; type: cell-based, human
Method: as §1, §2, §3

[2] = tested on: NCI-H23 (Non-small cell lung); assay: as above; type: cell-based, human
Method: as §1, §2, §3

CCRF-CEM (Leukemia) = assay: as above; type: cell-based, human
Method: as §1, §2, §3

786-0 (Renal) = assay: as above; type: cell-based, human
Method: as §1, §2, §3

RPMI-8226 (Leukemia) = assay: as above; type: cell-based, human
Method: as §1, §2, §3

UO-31 (Renal) = assay: as above; type: cell-based, human
Method: as §1, §2, §3

MALME-3M (Melanoma) = assay: as above; type: cell-based, human
Method: as §1, §2, §3

OVCAR-3 (Ovarian) = assay: as above; type: cell-based, human
Method: as §1, §2, §3

CAKI-1 (Renal) = assay: as above; type: cell-based, human
Method: as §1, §2, §3

HL-60(TB) (Leukemia) = assay: as above; type: cell-based, human
Method: as §1, §2, §3

LOX IMVI (Melanoma) = assay: as above; type: cell-based, human
Method: as §1, §2, §3

TK-10 (Renal) = assay: as above; type: cell-based, human
Method: as §1, §2, §3

ACHN (Renal) = assay: as above; type: cell-based, human
Method: as §1, §2, §3

[3] = tested on: NCI-H522 (Non-small cell lung); assay: as above; type: cell-based, human
Method: as §1, §2, §3

M14 (Melanoma) = assay: as above; type: cell-based, human
Method: as §1, §2, §3

NCI/ADR-RES (Breast) = assay: as above; type: cell-based, human
Method: as §1, §2, §3

SF-539 (CNS) = assay: as above; type: cell-based, human
Method: as §1, §2, §3

U251 (CNS) = assay: as above; type: cell-based, human
Method: as §1, §2, §3

MDA-MB-231/ATCC (Breast) = assay: as above; type: cell-based, human
Method: as §1, §2, §3

UACC-257 (Melanoma) = assay: as above; type: cell-based, human
Method: as §1, §2, §3

SK-MEL-5 (Melanoma) = assay: as above; type: cell-based, human
Method: as §1, §2, §3

human tumour cell lines = assay: In vitro cytotoxicity, mean graph midpoints (MG_MID) over human tumour cell lines; type: cell-based; details: for Log10LC50 mean graph midpoint (MG_MID): 50% cell death; for Log10LC50 mean graph midpoint (MG_MID) / Log10GI50 mean graph midpoint (MG_MID) / Log10TGI mean graph midpoint (MG_MID): human tumour cell lines, 48 h exposure, SRB; for cytotoxicity against some cancer cell lines: in words, refers to Table 3; for Log10TGI mean graph midpoint (MG_MID): total cell growth inhibition
Method: as §1, §2

[4] = tested on: duplex-form calf thymus DNA (CT-DNA); assay: Thermal denaturation studies with calf thymus DNA; type: binding; details: [PBD]:[DNA] molar ratio 1:5, CT-DNA 100 μM, ligand 20 μM, pH 7.00; for ΔTμ (° C.) after incubation at 37 °C. for 0 h: 0 h incubation; for ΔTμ (° C.) after incubation at 37 °C. for 18 h: 18 h incubation
Method: These compounds have also been subjected to thermal denaturation studies with duplex-form calf thymus DNA (CT-DNA) using an modification of a reported procedure. Working solutions in aqueous buffer (10 mM NaH2PO4/Na2HPO4, 1 mM Na2EDTA, pH 7.00+0.01) containing CT-DNA (100 μm in phosphate) and the PBD (20 μm) have been prepared by addition of concentrated PBD solutions in DMSO to obtain a fixed [PBD]/[DNA] molar ratio of 1:5. The DNA-PBD solutions have been incubated at 37° C. for 0 and 18 h prior to analysis. Samples have been monitored at 260 nm using a Beckman DU-800 spectrophotometer fitted with high performance temperature controller, and heated at 1° C. min^−1 in the 40-110° C. range. DNA helix→coil transition temperatures (Tm) have been obtained from the maxima in the d(A260)/d T derivative plots. Drug-induced alterations in DNA melting behavior are given by: ΔTm=Tm(DNA+PBD)−Tm(DNA alone), where the Tm value for the PBD-free CT-DNA is 68.5±0.01.

Compound	GI50 (HCT-15 (Colon)) [µM]	GI50 (UACC-62 (Melanoma)) [µM]	GI50 [1] [µM]	GI50 (HCT-116 (Colon)) [µM]	GI50 (A498 (Renal)) [µM]	GI50 (SW-620 (Colon)) [µM]	GI50 [2] [µM]	GI50 (CCRF-CEM (Leukemia)) [µM]	GI50 (786-0 (Renal)) [µM]	GI50 (RPMI-8226 (Leukemia)) [µM]	GI50 (UO-31 (Renal)) [µM]	GI50 (MALME-3M (Melanoma)) [µM]	GI50 (OVCAR-3 (Ovarian)) [µM]	GI50 (CAKI-1 (Renal)) [µM]	GI50 (HL-60(TB) (Leukemia)) [µM]	GI50 (LOX IMVI (Melanoma)) [µM]	GI50 (TK-10 (Renal)) [µM]	GI50 (ACHN (Renal)) [µM]	GI50 [3] [µM]	GI50 (M14 (Melanoma)) [µM]	also measured
COc1cc(C=CC(=O)c2ccc(F)cc2)ccc1OCCCCOc1cc2c(cc1OC)C(=O)N1CCC[C@H]1C=N2 [6b, 7-Methoxy-8-{4-[1-(4-fluorophenyl)-3-(4-hydroxy-3-methoxyphenyl)-2-propen-1-one]butyl}-oxy-(11aS)-1,2,3,11a-5H-pyrrolo[2,1-c][1,4]benzodiazepin-5-one]	28.5	10	14	11.2	26.1	13.5	19.2	16	19.8	13	19.2	18.2	37	13.6	29	10	16.6	43.4	11.5	10.1	GI50 (NCI/ADR-RES (Breast)): 13.8 µM; GI50 (SF-539 (CNS)): 29.6 µM; GI50 (U251 (CNS)): 14.8 µM; GI50 (MDA-MB-231/ATCC (Breast)): 11.6 µM; GI50 (UACC-257 (Melanoma)): 70.9 µM; GI50 (SK-MEL-5 (Melanoma)): 10 µM; Log10LC50 mean graph midpoint (MG_MID) (human tumour cell lines): −4.59; Log10GI50 mean graph midpoint (MG_MID) (human tumour cell lines): −6.83; cytotoxicity against some cancer cell lines (human tumour cell lines): promising cytotoxicity; Log10TGI mean graph midpoint (MG_MID) (human tumour cell lines): −6.81; ΔTμ (° C.) after incubation at 37 °C. for 0 h [4]: 2.2 °C; ΔTμ (° C.) after incubation at 37 °C. for 18 h [4]: 2.6 °C
COc1cc(C=CC(=O)c2ccc(F)cc2)ccc1OCCCCCOc1cc2c(cc1OC)C(=O)N1CCC[C@H]1C=N2 [6c, 7-Methoxy-8-{5-[1-(4-fluorophenyl)-3-(4-hydroxy-3-methoxyphenyl)-2-propen-1-one]pentyl}-oxy-(11aS)-1,2,3,11a-5H-pyrrolo[2,1-c][1,4]benzodiazepin-5-one]	29.3	15.1	16.5	21	20.1	18.8	15.8	25.1	18.4	16.4	21.1	24.2	34.3	15.8	28.2	18.2	38.2	42	65.3	14.5	GI50 (NCI/ADR-RES (Breast)): 17.4 µM; GI50 (SF-539 (CNS)): 30.3 µM; GI50 (U251 (CNS)): 15.2 µM; GI50 (MDA-MB-231/ATCC (Breast)): 19.9 µM; GI50 (UACC-257 (Melanoma)): 22.9 µM; GI50 (SK-MEL-5 (Melanoma)): 20.9 µM; Log10LC50 mean graph midpoint (MG_MID) (human tumour cell lines): −4.61; Log10GI50 mean graph midpoint (MG_MID) (human tumour cell lines): −6.86; cytotoxicity against some cancer cell lines (human tumour cell lines): promising cytotoxicity; Log10TGI mean graph midpoint (MG_MID) (human tumour cell lines): −6.79; ΔTμ (° C.) after incubation at 37 °C. for 0 h [4]: 2.4 °C; ΔTμ (° C.) after incubation at 37 °C. for 18 h [4]: 2.9 °C
COc1cc(C=CC(=O)c2c(C)nc3ccccc3c2C)ccc1OCCCOc1cc2c(cc1OC)C(=O)N1CCC[C@H]1C=N2 [10a, 7-Methoxy-8-{3-[3-(4-hydroxy-3-methoxyphenyl)-1-(2,4-dimethyl-3-quinolyl)-2-propen-1-one]propyl}-oxy-(11aS)-1,2,3,11a-5H-pyrrolo[2,1-c][1,4]benzodiazepin-5-one]	29.7	15.1	10.8	21	20.1	26.6	24.1	12.5	17.3	15	21.6	24.2	24.9	15.8	25.2	18.2	33.2	32	10.8	14.5	GI50 (NCI/ADR-RES (Breast)): 17.6 µM; GI50 (SF-539 (CNS)): 30.3 µM; GI50 (U251 (CNS)): 19.8 µM; GI50 (MDA-MB-231/ATCC (Breast)): 19.9 µM; GI50 (UACC-257 (Melanoma)): 22.9 µM; GI50 (SK-MEL-5 (Melanoma)): 20.9 µM; Log10LC50 mean graph midpoint (MG_MID) (human tumour cell lines): −4.43; Log10GI50 mean graph midpoint (MG_MID) (human tumour cell lines): −6.94; cytotoxicity against some cancer cell lines (human tumour cell lines): promising cytotoxicity; Log10TGI mean graph midpoint (MG_MID) (human tumour cell lines): −6.90; ΔTμ (° C.) after incubation at 37 °C. for 0 h [4]: 4.0 °C; ΔTμ (° C.) after incubation at 37 °C. for 18 h [4]: 4.6 °C
COc1cc(C=CC(=O)c2c(C)nc3ccccc3c2C)ccc1OCCCCOc1cc2c(cc1OC)C(=O)N1CCC[C@H]1C=N2 [10b, 7-Methoxy-8-{4-[3-(4-hydroxy-3-methoxyphenyl)-1-(2,4-dimethyl-3-quinolyl)-2-propen-1-one]butyl}-oxy-(11aS)-1,2,3,11a-5H-pyrrolo[2,1-c][1,4]benzodiazepin-5-one]	18.4	22.5	10.1	14.6	19.5	25.9	19.5	13.4	14.9	13.8	15.2	36.2	26.3	12.9	24.5	15	31.4	36.1	9	18.8	GI50 (NCI/ADR-RES (Breast)): 16.9 µM; GI50 (SF-539 (CNS)): 33.7 µM; GI50 (U251 (CNS)): 15.7 µM; GI50 (MDA-MB-231/ATCC (Breast)): 14.2 µM; GI50 (UACC-257 (Melanoma)): 15.9 µM; GI50 (SK-MEL-5 (Melanoma)): 23.3 µM; Log10LC50 mean graph midpoint (MG_MID) (human tumour cell lines): −4.46; Log10GI50 mean graph midpoint (MG_MID) (human tumour cell lines): −6.86; cytotoxicity against some cancer cell lines (human tumour cell lines): promising cytotoxicity; Log10TGI mean graph midpoint (MG_MID) (human tumour cell lines): −6.94; ΔTμ (° C.) after incubation at 37 °C. for 0 h [4]: 4.3 °C; ΔTμ (° C.) after incubation at 37 °C. for 18 h [4]: 4.9 °C
